Laboratory results from patent US20120059162A1, “FUSED IMIDAZOLE DERIVATIVE HAVING TTK INHIBITORY ACTION” (Oncotherapy Science, Inc., priority 2009, published 2012).
pIC50: −log10 of the molar value.

Test system: A549
Assay: A549 assay: screening of cancer cell growth inhibiting compound
Format: cell-based
Conditions: Homo sapiens, 72 h; A549 cells, three days, WST-8; read-out: A549 IC50
Method: Screening of Cancer Cell Growth Inhibiting Compound
A cell suspension solution (RERF-LC-AI, A549: 1×10^4/ml, MRC5: 3×10^4/ml and 1×10^5/ml) adjusted to an appropriate concentration with D-MEM (hereinafter, referred to as a culture solution and manufactured by Nacalai Tesque Inc.) supplemented with 10% FBS (HyClone) was added to the wells of a 96-well plate (hereinafter, well plate) at a rate of 100 μL/well and incubated in a CO2 incubator at 37° C. for a day. […] Next, cells were added to each well of the well plate prepared and the above compound dilution solution was added at a rate of 100 μL/well to obtain 200 μL/well. Thereafter, the cells were incubated in the CO2 incubator at 37° C. for further three days. To each well of the well plate, 10 μL of a WST-8 kit (Kishida Chemical Co., Ltd.) solution for counting the number of cells was added and a color reaction was performed in the CO2 incubator for 1 to 4 hours. After the absorbance at 450 nm (reference wavelength: 620 nm) was measured by a microplate reader, suppressing action of the test substance was calculated based on the absorbance value in the absence of a test substance.

SMILES | pIC50
CC(C)CNc1nc(-c2ccsc2)cn2c(-c3ccc(C(=O)NC4CC4)cc3)cnc12 [Example 1-103] | 6.00 to 6.30
CC(C)CNc1nc(-c2cccc(C#N)c2)cn2c(-c3ccc(C(=O)NC4CC4)cc3)cnc12 [Example 1-106] | 6.00 to 6.30
CC(C)CNc1nc(-c2cccnc2)cn2c(-c3ccc(C(=O)NC4CC4)cc3)cnc12 [Example 1-107] | 6.00 to 6.30
CC(C)CNc1nc(C2=CCCC2)cn2c(-c3ccc(C(=O)NC4CC4)cc3)cnc12 [Example 1-108] | 5.00 to 6.00
CC(C)CNc1nc(-c2ccc3occc(=O)c3c2)cn2c(-c3ccc(C(=O)NC4CC4)cc3)cnc12 [Example 1-110] | 6.00 to 6.30
CC(C)CNc1nc(-c2ccncc2)cn2c(-c3ccc(C(=O)NC4CC4)cc3)cnc12 [Example 1-111] | 6.30 to 7.30
CC(C)CNc1nc(-c2ccc(N)cc2)cn2c(-c3ccc(C(=O)NC4CC4)cc3)cnc12 [Example 1-114] | 6.30 to 7.30
CC(C)CNc1nc(-c2ccc(S(=O)(=O)N3CCCC3)cc2)cn2c(-c3ccc(C(=O)NC4CC4)cc3)cnc12 [Example 1-115] | 5.00 to 6.00
CC(C)CNc1nc(-c2ccc(S(=O)(=O)C(C)C)cc2)cn2c(-c3ccc(C(=O)NC4CC4)cc3)cnc12 [Example 1-116] | 6.00 to 6.30
CC(C)CNc1nc(-c2ccc(OCCN3CCOCC3)cc2)cn2c(-c3ccc(C(=O)NC4CC4)cc3)cnc12 [Example 1-117] | 5.00 to 6.00
CC(C)CNc1nc(-c2ccc(NC(=O)NCc3ccco3)cc2)cn2c(-c3ccc(C(=O)NC4CC4)cc3)cnc12 [Example 1-118] | 6.00 to 6.30
CC(C)CNc1nc(-c2ccc(CNS(C)(=O)=O)cc2)cn2c(-c3ccc(C(=O)NC4CC4)cc3)cnc12 [Example 1-119] | 6.00 to 6.30
CC(C)CNc1nc(-c2ccc(O)c(Cl)c2)cn2c(-c3ccc(C(=O)NC4CC4)cc3)cnc12 [Example 1-120] | 5.00 to 6.00
CC(C)CNc1nc(-c2ccc(NC(=O)N3CCCC3)cc2)cn2c(-c3ccc(C(=O)NC4CC4)cc3)cnc12 [Example 1-121] | 6.00 to 6.30
CC(C)CNc1nc(-c2cccc(C(=O)NCCCN(C)C)c2)cn2c(-c3ccc(C(=O)NC4CC4)cc3)cnc12 [Example 1-122] | 5.00 to 6.00
CC(C)CNc1nc(-c2ccccc2N)cn2c(-c3ccc(C(=O)NC4CC4)cc3)cnc12 [Example 1-123] | 6.30 to 7.30
CC(C)CNc1nc(-c2cccc(N)c2)cn2c(-c3ccc(C(=O)NC4CC4)cc3)cnc12 [Example 1-124] | 6.00 to 6.30
CC(C)CNc1nc(-c2ccc(C(=O)c3ccccc3)cc2)cn2c(-c3ccc(C(=O)NC4CC4)cc3)cnc12 [Example 1-125] | 5.00 to 6.00
CC(C)CNc1nc(-c2cccc(CN3CCOCC3)c2)cn2c(-c3ccc(C(=O)NC4CC4)cc3)cnc12 [Example 1-127] | 5.00 to 6.00

SMILES | pIC50
CC(C)CNc1nc(-c2cccc(C(=O)NCCCN3CCN(C)CC3)c2)cn2c(-c3ccc(C(=O)NC4CC4)cc3)cnc12 [Example 1-138] | 5.00 to 6.00
CC(C)CNc1nc(-c2cccc(C(=O)NCCN3CCOCC3)c2)cn2c(-c3ccc(C(=O)NC4CC4)cc3)cnc12 [Example 1-139] | 6.00 to 6.30
COCCNC(=O)c1cccc(-c2cn3c(-c4ccc(C(=O)NC5CC5)cc4)cnc3c(NCC(C)C)n2)c1 [Example 1-140] | 6.30 to 7.30
CC(C)CNc1nc(-c2cccc(C(=O)NCCS(C)(=O)=O)c2)cn2c(-c3ccc(C(=O)NC4CC4)cc3)cnc12 [Example 1-141] | 5.00 to 6.00
CC(C)CNc1nc(-c2cccc(C(N)=O)c2)cn2c(-c3ccc(C(=O)NC4CC4)cc3)cnc12 [Example 1-143] | 6.00 to 6.30
CC(C)CNc1nc(-c2cccc(C(=O)N3CCN(C)CC3)c2)cn2c(-c3ccc(C(=O)NC4CC4)cc3)cnc12 [Example 1-144] | 5.00 to 6.00
CC(C)CNc1nc(-c2ccc(C(=O)NCCN3CCOCC3)cc2)cn2c(-c3ccc(C(=O)NC4CC4)cc3)cnc12 [Example 1-147] | 5.00 to 6.00
COCCNC(=O)c1ccc(-c2cn3c(-c4ccc(C(=O)NC5CC5)cc4)cnc3c(NCC(C)C)n2)cc1 [Example 1-148] | 6.00 to 6.30
CC(C)CNc1nc(-c2ccc(C(=O)NCCS(C)(=O)=O)cc2)cn2c(-c3ccc(C(=O)NC4CC4)cc3)cnc12 [Example 1-149] | 5.00 to 6.00
CC(C)CNc1nc(-c2ccc(C(N)=O)cc2)cn2c(-c3ccc(C(=O)NC4CC4)cc3)cnc12 [Example 1-151] | 6.30 to 7.30
CC(C)CNc1nc(-c2ccc(C(=O)N3CCOCC3)cc2)cn2c(-c3ccc(C(=O)NC4CC4)cc3)cnc12 [Example 1-153] | 5.00 to 6.00
CC(C)CNc1nc(-c2cccc(NC(=O)N3CCN(C)CC3)c2)cn2c(-c3ccc(C(=O)NC4CC4)cc3)cnc12 [Example 1-154] | 5.00 to 6.00
CC(C)CNc1nc(-c2cccc(NC(=O)N3CCOCC3)c2)cn2c(-c3ccc(C(=O)NC4CC4)cc3)cnc12 [Example 1-155] | 5.00 to 6.00
COCC(=O)Nc1cccc(-c2cn3c(-c4ccc(C(=O)NC5CC5)cc4)cnc3c(NCC(C)C)n2)c1 [Example 1-156] | 6.00 to 6.30
CC(=O)Nc1cccc(-c2cn3c(-c4ccc(C(=O)NC5CC5)cc4)cnc3c(NCC(C)C)n2)c1 [Example 1-157] | 6.00 to 6.30
CC(C)CNc1nc(-c2cccc(NC(=O)CCCN3CCOCC3)c2)cn2c(-c3ccc(C(=O)NC4CC4)cc3)cnc12 [Example 1-158] | 6.00 to 6.30
CC(C)CNc1nc(-c2cccc(NC(=O)[C@@H](N)CO)c2)cn2c(-c3ccc(C(=O)NC4CC4)cc3)cnc12 [Example 1-159] | 5.00 to 6.00
CC(C)CNc1nc(-c2ccc(NC(=O)N3CCN(C)CC3)cc2)cn2c(-c3ccc(C(=O)NC4CC4)cc3)cnc12 [Example 1-160] | 5.00 to 6.00
CC(C)CNc1nc(-c2ccc(NC(=O)N3CCOCC3)cc2)cn2c(-c3ccc(C(=O)NC4CC4)cc3)cnc12 [Example 1-161] | 5.00 to 6.00

SMILES | pIC50
COCC(=O)Nc1ccc(-c2cn3c(-c4ccc(C(=O)NC5CC5)cc4)cnc3c(NCC(C)C)n2)cc1 [Example 1-162] | 5.00 to 6.00
CC(=O)Nc1ccc(-c2cn3c(-c4ccc(C(=O)NC5CC5)cc4)cnc3c(NCC(C)C)n2)cc1 [Example 1-163] | 6.00 to 6.30
CC(C)CNc1nc(-c2cccc(NCCCN)c2)cn2c(-c3ccc(C(=O)NC4CC4)cc3)cnc12 [Example 1-166] | 5.00 to 6.00
CC(C)CNc1nc(-c2cccc(NC3CCOCC3)c2)cn2c(-c3ccc(C(=O)NC4CC4)cc3)cnc12 [Example 1-167] | 6.00 to 6.30
CC(C)CNc1nc(-c2cccc(NCC3CCN(C)CC3)c2)cn2c(-c3ccc(C(=O)NC4CC4)cc3)cnc12 [Example 1-168] | 6.00 to 6.30
CC(C)CNc1nc(-c2ccc(NCCCN)cc2)cn2c(-c3ccc(C(=O)NC4CC4)cc3)cnc12 [Example 1-169] | 5.00 to 6.00
CC(C)CNc1nc(-c2ccc(NC3CCOCC3)cc2)cn2c(-c3ccc(C(=O)NC4CC4)cc3)cnc12 [Example 1-170] | 5.00 to 6.00
CC(C)CNc1nc(CCc2ccc(C(=O)O)cc2)cn2c(-c3ccc(C(=O)NC4CC4)cc3)cnc12 [Example 1-175] | 6.30 to 7.30
O=C(NC1CC1)c1ccc(-c2cnc3c(NCC4CCOCC4)nc(-c4ccsc4)cn23)cc1 [Example 1-177] | 6.30 to 7.30
O=C(NC1CC1)c1ccc(-c2cnc3c(NCC4CCOCC4)nc(-c4ccncc4)cn23)cc1 [Example 1-179] | 6.30 to 7.30
C/C=C/c1cn2c(-c3ccc(C(=O)NC4CC4)cc3)cnc2c(NCC2CCOCC2)n1 [Example 1-243] | 6.00 to 6.30
N#Cc1ccc(-c2cn3c(-c4ccc(C(=O)NC5CC5)cc4)cnc3c(NCC3CCOCC3)n2)cn1 [Example 1-244] | 6.30 to 7.30
N#Cc1ccc(-c2cn3c(-c4ccc(C(=O)NC5CC5)cc4)cnc3c(NCC3CCOCC3)n2)c(N)c1 [Example 1-245] | 6.30 to 7.30
N#Cc1ccc(-c2cn3c(-c4ccc(C(=O)NC5CC5)cc4)cnc3c(NCC3CCOCC3)n2)cc1F [Example 1-246] | 6.30 to 7.30
O=C(NC1CC1)c1ccc(-c2cnc3c(NCC4CCOCC4)nc(C4=CCNCC4)cn23)cc1 [Example 1-247] | 5.00 to 6.00
O=C(NC1CC1)c1ccc(-c2cnc3c(NCC4CCOCC4)nc(C=C4CCCCC4)cn23)cc1 [Example 1-248] | 5.00 to 6.00
CC(=O)N1CC=C(c2cn3c(-c4ccc(C(=O)NC5CC5)cc4)cnc3c(NCC3CCOCC3)n2)CC1 [Example 1-249] | 6.00 to 6.30
O=C(NC1CC1)c1ccc(-c2cnc3c(NCC4CCOCC4)nc(CC4CCCCC4)cn23)cc1 [Example 1-250] | 5.00 to 6.00
Cc1nc(C)c(-c2cc(NCC(C)C)c3ncc(-c4ccc(C(=O)NC5CC5)cc4)n3n2)s1 [Example 2-8] | 6.00 to 6.30

Same assay, conditions: Homo sapiens, A549, 72 h, read-out: A549 IC50 (μM)

SMILES | IC50
O=C(NC1CC1)c1ccc(-c2cnc3c(NCC4CCOCC4)nccn23)cc1 [Example 1-1, N-cyclopropyl-4-(8-((tetrahydro-2H-pyran-4-yl)methylamino)imidazo[1,2-a]pyrazin-3-yl)benzamide] | 1 to 10 µM
O=C(NC1CC1)c1ccc(-c2cnc3c(NCC4CC4)nccn23)cc1 [Example 1-36] | 1 to 10 µM
CCCNc1nccn2c(-c3ccc(C(=O)NC4CC4)cc3)cnc12 [Example 1-37] | 1 to 10 µM
CC(C)CCNc1nccn2c(-c3ccc(C(=O)NC4CC4)cc3)cnc12 [Example 1-43] | 1 to 10 µM
CC(C)CNc1nc(-c2ccccc2)cn2c(-c3ccc(C(=O)NC4CC4)cc3)cnc12 [Example 1-101] | 0.5 to 1 µM
CC(C)CNc1cc(-c2ccccc2)nn2c(-c3ccc(C(=O)NC4CC4)cc3)cnc12 [Example 2-7] | 0.5 to 1 µM
